Measured values published in ChEMBL document CHEMBL6134920, “Novel Heterocyclic Pyrimidine Derivatives as GSK3α Inhibitors” (ACS Med Chem Lett, 2025).

Experiment: Inhibition of Nanoluc-GSK2alpha (unknown origin) expressed in HEK293 cells measured after overnight incubation by NanoBRET- cellular assay
Conditions: Homo sapiens

Row | Compound | IC50 [nM]
1 | COCC(N)c1cncc(NC(=O)c2c(N)ncn(-c3c(Cl)cc(OC4CC4)cc3Cl)c2=O)c1 (stereo unspecified) | 2.4
2 | CCNCc1cncc(NC(=O)c2c(N)ncn(-c3c(Cl)cc(OCC)cc3Cl)c2=O)c1 | 4.8
3 | COCC(N)c1cncc(NC(=O)c2c(N)ncn(-c3c(Cl)cc(C(F)F)cc3Cl)c2=O)c1 (stereo unspecified) | 2.8
4 | COCc1cc(Cl)c(-n2cnc(N)c(C(=O)Nc3cncc(C(N)COC)c3)c2=O)c(Cl)c1 (stereo unspecified) | 2.4

These reach a lower IC50. Values come first.

Row | IC50 [nM] | Compound
5 | 2 | Nc1ncn(-c2c(Cl)cc(C(F)CF)cc2Cl)c(=O)c1C(=O)Nc1cncc([C@H]2CCCCN2)c1 (stereo partly specified)
6 | 1.9 | CNC(COC)c1cncc(NC(=O)c2c(N)ncn(-c3c(Cl)cc(COC)cc3Cl)c2=O)c1 (stereo unspecified)
